Test results: paper PMC8006714 (Chemical Communications (Cambridge, England), 2021)
“Also recorded” adds a separate entry of the source. Counter-ions that a name gives are not always drawn.

Each compound was assayed against T1, SARS-CoV-2 M^pro (Severe acute respiratory syndrome coronavirus 2, UniProt P0DTD1) (assay: biochemical). Conditions: not given.
Type: biochemical
For `Br.NC1CCc2cc(O)c(O)cc2C1` (racemic) [(±)-2-Amino-6,7-dihydroxy-1,2,3,4-tetrahydronaphthalene hydrobromide], the “% Mpro inhibition at 20 µM” value was 88.3%.
`O=Nc1ccc2oc(=O)ccc2c1` [6-Nitroso-1,2-benzopyrone] was tested, and the “% Mpro inhibition at 20 µM” value was 99.5%.
`Br.CCCN1CCc2cc(O)cc3c2[C@H]1Cc1ccc(O)c(O)c1-3` [(R)-(−)-2,10,11-Trihydroxy-n-propylnoraporphine hydrobromide] was tested, and the “% Mpro inhibition at 20 µM” value was 98.3%.
For `CCCN1CCc2cccc3c2[C@H]1Cc1ccc(O)c(O)c1-3.Cl` [(R)-(−)-Propylnorapomorphine hydrochloride], the “% Mpro inhibition at 20 µM” value was 100.0%.
`N.S=C(S)N1CCCC1` [Ammonium pyrrolidinedithiocarbamate] was tested, and the “% Mpro inhibition at 20 µM” value was 95.1%.
In the case of `OC[C@H]1O[C@H]([S-])[C@H](O)[C@@H](O)[C@@H]1O.[Au+]` [Aurothioglucose], the “% Mpro inhibition at 20 µM” value is reported as 96.6%.
`Cc1ccc(S(=O)(=O)/C=C/C#N)cc1` [BAY 11-7082] was tested, and the “% Mpro inhibition at 20 µM” value was 92.0%.
In the case of `CC(C)(C)c1ccc(S(=O)(=O)/C=C/C#N)cc1` [Bay 11-7085], the “% Mpro inhibition at 20 µM” value is reported as 95.0%.
With `CC=CC1=C(C(=O)O)N2C(=O)[C@@H](NC(=O)[C@H](N)c3ccc(O)cc3)[C@H]2SC1` [Cefprozil] the “% Mpro inhibition at 20 µM” value was 57.5%.
In the case of `CO/N=C(\C(=O)N[C@@H]1C(=O)N2C(C(=O)O)=C(CSC(=O)c3ccco3)CS[C@H]12)c1csc(N)n1.Cl` [Ceftiofur hydrochloride], the “% Mpro inhibition at 20 µM” value is reported as 65.0%.
For `CC(=O)OCC1=C(C(=O)[O-])N2C(=O)[C@@H](NC(=O)CCCC(N)C(=O)O)[C@H]2SC1.[Na+]` (some centres unmarked) [Cephalosporin C sodium], the “% Mpro inhibition at 20 µM” value was 78.3% and the “M^pro inhibition (in words)” value was “inhibited”.
With `CCN(CC)C(=S)SSC(=S)N(CC)CC` [Disulfiram, Tetraethylthiuram disulphide] the “inhibition at a fixed 20 μM inhibitor concentration” value was no less than 80%.
`O=C([O-])c1ccccc1-c1c2cc(I)c(=O)c(I)c-2oc2c(I)c([O-])c(I)cc12.[Na+].[Na+]` [Erythrosine sodium] was tested, and the “% Mpro inhibition at 20 µM” value was 86.5%.
With `NC(N)=Nc1ccc2[nH]c3c(c2c1)C[C@@]1(O)[C@H]2Cc4ccc(O)c5c4[C@@]1(CCN2CC1CC1)[C@H]3O5.O=C(O)C(F)(F)F.O=C(O)C(F)(F)F` [Guanidinyl-naltrindole di-trifluoroacetate] the “% Mpro inhibition at 20 µM” value was 99.6%.
With `NC(=O)CI` [Iodoacetamide] the “% Mpro inhibition at 20 µM” value was 99.3%.
In the case of `O=C(N[C@@H](Cc1ccccc1)C(=O)CCl)OCc1ccccc1` [N-Carbobenzyloxy-L-phenylanlanyl chloromethyl ketone], the “% Mpro inhibition at 20 µM” value is reported as 100.0%.
`CCN[C@@H]1C[C@H](N)[C@@H](O[C@H]2OC(CN)=CC[C@H]2N)[C@H](O)[C@H]1O[C@H]1OC[C@](C)(O)[C@H](NC)[C@H]1O.CCN[C@@H]1C[C@H](N)[C@@H](O[C@H]2OC(CN)=CC[C@H]2N)[C@H](O)[C@H]1O[C@H]1OC[C@](C)(O)[C@H](NC)[C@H]1O.O=S(=O)(O)O.O=S(=O)(O)O.O=S(=O)(O)O.O=S(=O)(O)O.O=S(=O)(O)O` [Netilmicin sulfate] was tested, and the “% Mpro inhibition at 20 µM” value was 89.1%.
In the case of `CC(Cc1ccc(O)c(O)c1)C(C)Cc1ccc(O)c(O)c1` (centres unmarked) [Nordihydroguaiaretic acid], the “% Mpro inhibition at 20 µM” value is reported as 97.8%.
With `Oc1ccccc1O` [Pyrocatechol] the “% Mpro inhibition at 20 µM” value was 85.4.
With `C[n+]1cc2c3c(ccc2c2ccc4cc5c(cc4c21)OCO5)OCO3` [Sanguinarium chloride, Sanguinarine chloride] the “% Mpro inhibition at 20 µM” value was 98.7%.
With `Br.CN=c1nc(-c2ccccc2)n(-c2ccccc2)s1` [Sch-202676 hydrobromide] the “% Mpro inhibition at 20 µM” value was 100.0%.
In the case of `CC(C)N(CCC(=O)c1ccc2ccccc2c1)Cc1ccccc1.Cl` [ZM 39923 hydrochloride], the “% Mpro inhibition at 20 µM” value is reported as 96.9%.
With `[Cl-].[NH3+][Pt-2]([NH3+])([Cl])[n+]1ccccc1` (stereo not drawn) [cis-Diammine(pyridine)chloroplatinum(II) chloride] the “% Mpro inhibition at 20 µM” value was 99.6%.
In the case of “(R)-(−)-2,10,11-Trihydroxyaporphine hybrobromide”, the “% Mpro inhibition at 20 µM” value is reported as 99.6%.
In the case of “Chlorophyllide copper complex sodium salt”, the “% Mpro inhibition at 20 µM” value is reported as 86.5%.
For Colistin sulfate, the “% Mpro inhibition at 20 µM” value was 95.8%.

Same assay, conditions: 20, 50 and 100 µM β-lactam; 30 min or 60 min preincubation (Fig. S17)
With `C=CC1=C(C(=O)O)N2C(=O)[C@@H](NC(=O)/C(=N\O)c3csc(N)n3)[C@H]2SC1` [Cefdinir] the “M^pro inhibition at single concentrations (in words)” value was “weak time dependent inhibition”.
In the case of `CO/N=C(\C(=O)N[C@@H]1C(=O)N2C(C(=O)O)=C(CSC(=O)c3ccco3)CS[C@H]12)c1csc(N)n1` [ceftiofur], the “M^pro inhibition at single concentrations (in words)” value is reported as “weak time dependent inhibition”.
`O=C1[C@H](CC[C@H](O)c2ccc(F)cc2)[C@@H](c2ccc(O)cc2)N1c1ccc(F)cc1` [ezetimibe] was tested, and the “M^pro inhibition at single concentrations (in words)” value was “weak time dependent inhibition”.
For `CC1(C)S[C@@H]2[C@H](NC(=O)Cc3ccccc3)C(=O)N2[C@H]1C(=O)O` [penicillin G], the “M^pro inhibition at single concentrations (in words)” value was “No inhibition was observed”.
For `CC1(C)S[C@@H]2[C@H](NC(=O)COc3ccccc3)C(=O)N2[C@H]1C(=O)O` [penicillin V], the “M^pro inhibition at single concentrations (in words)” value was “No inhibition was observed”.
In the case of `CC1(C)S[C@@H]2[C@H](NC(=O)[C@H](N)c3ccccc3)C(=O)N2[C@H]1C(=O)OC1OC(=O)c2ccccc21` (some centres unmarked) [talampicillin], the “M^pro inhibition at single concentrations (in words)” value is reported as “weak time dependent inhibition”.

Same assay, conditions: SPE-MS, concentration not given
For `CC1=C(C(=O)O)N2C(=O)[C@@H](NC(=O)[C@H](N)c3ccccc3)[C@H]2SC1` [cephalexin], the “M^pro inhibition (in words)” value was “no Mpro inhibition was observed”.

Same assay, conditions: library of FDA-approved small molecules; 20 µM compound, […] Mpro, 2.0 µM TSAVLQ/SGFRK-NH2; read-out: % Mpro inhibition at 20 µM
`Cc1c(-c2cnccn2)ssc1=S` [Oltipraz] showed an inhibition at 20 µM of 99.6%.

Same assay, conditions: read-out: % Mpro inhibition at 20 µM
`O=C1C=CC(=O)C=C1` [1,4-Benzoquinone] gave an inhibition at 20 µM of 99.3%.
Compound `O=c1oc(Cl)c(Cl)c2ccccc12` [3,4-Dichloroisocoumarin] has an inhibition at 20 µM of 80.4%.
In the case of `S=C=NCc1ccccc1` [Benzyl isothiocyanate], the inhibition at 20 µM is reported as 95.8%.
`NC(=O)c1cc[n+](CC2=C(C(=O)[O-])N3C(=O)[C@@H](NC(=O)Cc4cccs4)[C@H]3SC2)cc1` [Cefalonium] was tested, and the inhibition at 20 µM was 9.2%.
`CO/N=C(\C(=O)N[C@@H]1C(=O)N2C(C(=O)O)=C(C[N+]3(C)CCCC3)CS[C@H]12)c1csc(N)n1` [Cefepime hydrochloride] showed an inhibition at 20 µM of 20.6%.
`NCc1ccccc1CC(=O)N[C@@H]1C(=O)N2C(C(=O)O)=C(CSc3nnnn3CC(=O)O)CS[C@H]12` [Ceforanide] gave an inhibition at 20 µM of 10.2%.
With `COc1ccc2c(c[n+](C)c3c4cc5c(cc4ccc23)OCO5)c1OC` [Chelerythrine chloride] the inhibition at 20 µM was 85.2%.
Work on `CC(=O)/N=c1/sc(S(N)(=O)=O)nn1C` [Methazolamide] yielded an inhibition at 20 µM of 82.9%.
`Oc1cc(O)cc(/C=C/c2ccc(O)c(O)c2)c1` [Piceatannol] showed an inhibition at 20 µM of 93.8%.
`CC[N+]1(C)CCCC(OC(=O)C(O)(c2ccccc2)c2ccccc2)C1` (centres unmarked) [Pipenzolate bromide] showed an inhibition at 20 µM of 100%.
`C[n+]1cc2c3c(ccc2c2ccc4cc5c(cc4c21)OCO5)OCO3` [Sanguinarium chloride, Sanguinarine chloride] gave an inhibition at 20 µM of 100%.

Same assay, conditions: read-out: % Mpro inhibition at 20 µM, LOPAC1280 library; 20 µM compound, […] Mpro, 2.0 µM TSAVLQ/SGFRK-NH2
For `Oc1cc2c(cc1O)CN(C(=S)NCCc1ccc(Cl)cc1)CCC2` [Capsazepine], the inhibition at 20 µM was 94.5%.
`N[C@@H](C(=O)N[C@@H]1C(=O)N2C(C(=O)O)=C(Cl)CS[C@H]12)c1ccccc1` [Cefaclor] gave an inhibition at 20 µM of 8.7%.
Work on `CCN(CC)C(=S)SSC(=S)N(CC)CC` [Disulfiram, Tetraethylthiuram disulphide] yielded an inhibition at 20 µM of 97.5%.

Same assay, conditions: read-out: % Mpro inhibition at 20 µM, library of FDA-approved small molecules; 20 µM compound, […] Mpro, 2.0 µM TSAVLQ/SGFRK-NH2
Work on `CCN(CC)C(=S)SSC(=S)N(CC)CC` [Disulfiram, Tetraethylthiuram disulphide] yielded an inhibition at 20 µM of 99.1%.
`O=[N+]([O-])c1ccc(O)c2ncccc12` [Nitroxoline] showed an inhibition at 20 µM of 96%.

The compounds below were run against T1, SARS-CoV-2 M^pro (assay: not given). Conditions: 1 μM M^pro preincubated with 3 μM N3, 20 μM inhibitor.
Type: binding
With `Cc1ccc(S(=O)(=O)/C=C/C#N)cc1` [BAY 11-7082] the “covalent modification of M^pro preincubated with N3 (active site selectivity)” value was “multiple adducts observed with unmodified M^pro were diminished; also recorded: to a lesser extent compared to active site free M pro”.

Same assay, conditions: 1 μM M^pro, 20 μM inhibitor, 20 mM HEPES pH 7.5, 50 mM NaCl
`Cc1ccc(S(=O)(=O)/C=C/C#N)cc1` [BAY 11-7082] was tested, and the “covalent modification of M^pro (protein observed SPE-MS)” value was “reacts with Mpro at multiple position”.

Same assay, conditions: 1 µM Mpro, 100 fold excess of β-lactam, 25 min to 24 h
With `CCN1CCN(C(=O)N[C@@H](C(=O)N[C@]2(OC)C(=O)N3C(C(=O)O)=C(CSc4nnnn4C)CS[C@@H]32)[C@H](C)O)C(=O)C1=O` [cefbuperazone] the “covalent reaction with M^pro (protein observed SPE-MS)” value (“covalent reaction with M^pro” below) was “evidence for more than one reaction was accrued”.
`CO[C@@]1(NC(=O)C2SC(=C(C(N)=O)C(=O)O)S2)C(=O)N2C(C(=O)O)=C(CSc3nnnn3C)CS[C@@H]21` (some centres unmarked) [cefotetan] was tested, and the “covalent reaction with M^pro” value was “evidence for more than one reaction was accrued”.
In the case of `CO[C@@]1(NC(=O)Cc2cccs2)C(=O)N2C(C(=O)O)=C(COC(N)=O)CS[C@@H]21` [cefoxitin], the “covalent reaction with M^pro” value is reported as “evidence for more than one reaction was accrued”.
In the case of `O=C(O)[C@H]1/C(=C/CO)O[C@@H]2CC(=O)N21` [clavulanate], the “covalent reaction with M^pro” value is reported as “(partial) inhibitor fragmentation was observed”.
In the case of `CO[C@@]1(NC(=O)C(C(=O)O)c2ccc(O)cc2)C(=O)N2C(C(=O)O)=C(CSc3nnnn3C)CO[C@@H]21` (some centres unmarked) [moxalactam], the “covalent reaction with M^pro” value is reported as “(partial) inhibitor fragmentation was observed”.
`C[C@]1(Cn2ccnn2)[C@H](C(=O)O)N2C(=O)C[C@H]2S1(=O)=O` [tazobactam] was tested, and the “covalent reaction with M^pro” value was “increased over time”.
